Results reported in patent US8853418B2, “Cyclopentylpyrazoles as N-type calcium channel blockers” (Janssen Pharmaceutica NV, priority 2012, dated 2014).
Read-outs that look alike come from different tables or passages of the source.

Key:
[1] = target: N-type calcium channel (α1B (Cav2.2), β3 and α2δ subunits) (Homo sapiens, UniProt Q00975); test: Functional Assay: Antagonism of N-Type Calcium Channel (FDSS calcium mobilization, KCl depolarization); type: cell-based; details: for IC50: HEK cell line, 50 mM KCl depolarization, six-point concentration-response, read-out: FDSS IC50
Protocol: A stable cell line (HEK parent) co-expressing the α1B (Cav2.2), β3 and α2δ subunits of the N-type calcium channel subunits was used. These cells were routinely grown as monolayers in low glucose-containing Dulbecco's Modified Eagle Medium supplemented with 10% FBS, 2 mM L-glutamine, 100 I.U./mL penicillin, 100 μg/mL streptomycin, 400 μg/mL G418 and 200 μg/mL Zeocin (split ratio=1:5). Cells were maintained in 5% CO2 at 37° C. Compounds of Formula (I) were prepared as 10 mM stocks in DMSO from neat compound, if available. Otherwise, the 5 or 10 mM DMSO stock solutions provided in-house were used.
Calcium mobilization responses to KCl depolarization were evaluated by measuring the intensity of calcium-mediated fluorescent signal in the presence of BD Calcium Assay Dye (BD Biosciences, Franklin Lakes, N.J., U.S.A.), utilizing a Functional Drug Screening System (FDSS) by Hamamatsu Corporation (Bridgewater, N.J. U.S.A.).
Twenty-four hr prior to assay, cells were seeded in clear-base poly-D-lysine-coated 384-well plates (BD Biosciences) at a density of 5,000 cells per well in culture medium and grown overnight in 5% CO2 at 37° C. On the day of assay, growth media were removed, and cells were loaded with BD calcium assay dye (BD Biosciences) for 35 min at 37° C. under 5% CO2 and then for 25 min at room temp. Utilizing the FDSS, cells were exposed to representative compounds of Formula (I) at varying concentrations, and intracellular calcium was measured for 5 min prior to the addition of 50 mM KCl for an additional 3 min of measurement.
Calculations and Formulas
IC50 values for representative compounds of Formula (I) were determined from six-point concentration-response experiments and represent the concentration of said compound required to inhibit 50% of the maximal response. Maximal fluorescence intensity (FI) achieved upon addition of 50 mM KCl was exported from the FDSS software and further analyzed using GraphPad Prism 3.02 (Graph Pad Software Inc., San Diego, Calif., U.S.A.). Data were normalized to the maximum average counts from quadruplicate wells for each condition in the presence of 50 mM KCl and to the minimum average counts in the presence of buffer. Theoretical curves were generated using nonlinear regression curve-fitting analysis of either sigmoidal concentration-response or sigmoidal concentration-response (variable slope), and the IC50 values with the best-fit curve determined by GraphPad Prism were reported.

N-type calcium channel = N-type calcium channel (Homo sapiens, UniProt Q00975); test: Automated Electrophysiology Assay (QPatch-HT whole-cell patch clamp; low- and high-frequency stimulation); type: cell-based
[2] = high-frequency stimulation (15th pulse), read-out: QPatch at High Frequency % Inhibition
[3] = low frequency, read-out: QPatch at Low Frequency % Inhibition
[4] = 0.1 μM, high-frequency stimulation (15th pulse), read-out: QPatch at High Frequency % Inhibition
[5] = low frequency, 0.1 μM, read-out: QPatch at Low Frequency % Inhibition

Sequence of N-type calcium channel (α1B (Cav2.2), β3 and α2δ subunits) (Q00975 whole entry): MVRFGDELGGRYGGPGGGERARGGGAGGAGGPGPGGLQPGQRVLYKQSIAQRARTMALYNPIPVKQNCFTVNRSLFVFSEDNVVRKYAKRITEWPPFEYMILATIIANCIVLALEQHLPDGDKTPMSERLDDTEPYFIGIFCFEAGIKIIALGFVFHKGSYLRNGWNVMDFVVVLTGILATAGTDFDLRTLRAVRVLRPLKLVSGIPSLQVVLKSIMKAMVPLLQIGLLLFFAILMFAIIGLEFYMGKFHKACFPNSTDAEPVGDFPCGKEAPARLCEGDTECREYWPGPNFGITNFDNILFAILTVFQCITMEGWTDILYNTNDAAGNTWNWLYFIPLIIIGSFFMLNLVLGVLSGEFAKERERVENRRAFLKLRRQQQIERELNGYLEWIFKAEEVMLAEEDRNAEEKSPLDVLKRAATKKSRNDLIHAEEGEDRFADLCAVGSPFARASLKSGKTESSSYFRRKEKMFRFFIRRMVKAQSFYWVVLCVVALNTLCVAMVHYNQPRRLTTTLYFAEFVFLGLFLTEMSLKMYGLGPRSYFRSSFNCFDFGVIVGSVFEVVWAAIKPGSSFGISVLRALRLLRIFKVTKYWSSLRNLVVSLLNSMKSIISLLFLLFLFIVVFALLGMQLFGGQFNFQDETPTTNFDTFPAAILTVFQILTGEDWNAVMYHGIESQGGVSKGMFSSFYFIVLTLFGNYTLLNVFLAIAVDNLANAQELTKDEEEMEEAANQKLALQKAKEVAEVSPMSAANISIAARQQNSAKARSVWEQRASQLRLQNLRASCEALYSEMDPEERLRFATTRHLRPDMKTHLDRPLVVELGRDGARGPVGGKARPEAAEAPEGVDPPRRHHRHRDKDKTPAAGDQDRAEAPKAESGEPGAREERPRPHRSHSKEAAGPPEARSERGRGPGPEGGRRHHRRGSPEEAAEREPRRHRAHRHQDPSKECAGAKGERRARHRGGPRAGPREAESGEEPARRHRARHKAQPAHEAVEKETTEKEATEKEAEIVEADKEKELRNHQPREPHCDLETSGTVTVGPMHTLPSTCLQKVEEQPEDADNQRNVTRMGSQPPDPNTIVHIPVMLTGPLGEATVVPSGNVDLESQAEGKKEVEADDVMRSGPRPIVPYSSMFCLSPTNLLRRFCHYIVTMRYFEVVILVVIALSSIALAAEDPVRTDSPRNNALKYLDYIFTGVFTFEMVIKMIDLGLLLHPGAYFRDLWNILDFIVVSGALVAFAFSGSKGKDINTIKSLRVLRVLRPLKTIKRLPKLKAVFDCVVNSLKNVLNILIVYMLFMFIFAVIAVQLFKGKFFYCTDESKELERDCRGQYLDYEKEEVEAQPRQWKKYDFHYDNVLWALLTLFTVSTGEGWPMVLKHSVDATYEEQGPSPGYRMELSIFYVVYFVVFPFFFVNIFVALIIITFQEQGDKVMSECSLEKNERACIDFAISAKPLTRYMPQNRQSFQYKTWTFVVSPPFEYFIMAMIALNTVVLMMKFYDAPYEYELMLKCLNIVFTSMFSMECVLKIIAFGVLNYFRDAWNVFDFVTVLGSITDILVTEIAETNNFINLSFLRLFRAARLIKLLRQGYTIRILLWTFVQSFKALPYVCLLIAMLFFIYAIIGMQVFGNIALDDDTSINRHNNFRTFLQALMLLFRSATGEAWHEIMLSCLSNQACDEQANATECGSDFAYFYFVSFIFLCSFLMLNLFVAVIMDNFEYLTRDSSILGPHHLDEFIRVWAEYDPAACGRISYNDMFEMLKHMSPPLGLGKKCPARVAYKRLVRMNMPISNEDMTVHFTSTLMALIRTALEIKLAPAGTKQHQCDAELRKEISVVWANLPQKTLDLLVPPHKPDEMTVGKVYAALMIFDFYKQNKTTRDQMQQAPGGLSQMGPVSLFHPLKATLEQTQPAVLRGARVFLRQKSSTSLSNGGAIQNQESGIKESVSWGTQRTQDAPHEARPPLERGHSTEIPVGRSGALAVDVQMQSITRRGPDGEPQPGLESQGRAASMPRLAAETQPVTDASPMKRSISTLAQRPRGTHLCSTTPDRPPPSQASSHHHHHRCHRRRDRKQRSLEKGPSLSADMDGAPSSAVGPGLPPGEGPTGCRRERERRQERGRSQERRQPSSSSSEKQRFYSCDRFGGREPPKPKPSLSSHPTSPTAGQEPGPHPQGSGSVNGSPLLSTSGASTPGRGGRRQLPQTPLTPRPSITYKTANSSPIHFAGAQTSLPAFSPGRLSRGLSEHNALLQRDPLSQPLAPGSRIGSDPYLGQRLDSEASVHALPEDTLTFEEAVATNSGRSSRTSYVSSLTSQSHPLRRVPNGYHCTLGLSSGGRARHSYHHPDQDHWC
Sequence of N-type calcium channel (α1B (Cav2.2), β3 and α2δ subunits) (P54284 whole entry partner): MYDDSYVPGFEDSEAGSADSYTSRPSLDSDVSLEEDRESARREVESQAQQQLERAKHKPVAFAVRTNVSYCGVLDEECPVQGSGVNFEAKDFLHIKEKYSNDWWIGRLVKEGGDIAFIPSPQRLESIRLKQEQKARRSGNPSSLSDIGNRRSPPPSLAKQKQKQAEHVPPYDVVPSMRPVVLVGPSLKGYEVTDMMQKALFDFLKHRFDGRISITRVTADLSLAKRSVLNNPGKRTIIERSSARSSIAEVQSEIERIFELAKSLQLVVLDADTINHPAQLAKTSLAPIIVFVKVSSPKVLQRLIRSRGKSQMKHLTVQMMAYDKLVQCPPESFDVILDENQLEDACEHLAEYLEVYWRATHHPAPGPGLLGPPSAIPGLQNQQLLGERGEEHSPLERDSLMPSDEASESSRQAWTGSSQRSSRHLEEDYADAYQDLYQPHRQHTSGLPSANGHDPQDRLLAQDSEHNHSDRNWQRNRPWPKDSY
Sequence of N-type calcium channel (α1B (Cav2.2), β3 and α2δ subunits) (P54289 25-946 partner limits assumed): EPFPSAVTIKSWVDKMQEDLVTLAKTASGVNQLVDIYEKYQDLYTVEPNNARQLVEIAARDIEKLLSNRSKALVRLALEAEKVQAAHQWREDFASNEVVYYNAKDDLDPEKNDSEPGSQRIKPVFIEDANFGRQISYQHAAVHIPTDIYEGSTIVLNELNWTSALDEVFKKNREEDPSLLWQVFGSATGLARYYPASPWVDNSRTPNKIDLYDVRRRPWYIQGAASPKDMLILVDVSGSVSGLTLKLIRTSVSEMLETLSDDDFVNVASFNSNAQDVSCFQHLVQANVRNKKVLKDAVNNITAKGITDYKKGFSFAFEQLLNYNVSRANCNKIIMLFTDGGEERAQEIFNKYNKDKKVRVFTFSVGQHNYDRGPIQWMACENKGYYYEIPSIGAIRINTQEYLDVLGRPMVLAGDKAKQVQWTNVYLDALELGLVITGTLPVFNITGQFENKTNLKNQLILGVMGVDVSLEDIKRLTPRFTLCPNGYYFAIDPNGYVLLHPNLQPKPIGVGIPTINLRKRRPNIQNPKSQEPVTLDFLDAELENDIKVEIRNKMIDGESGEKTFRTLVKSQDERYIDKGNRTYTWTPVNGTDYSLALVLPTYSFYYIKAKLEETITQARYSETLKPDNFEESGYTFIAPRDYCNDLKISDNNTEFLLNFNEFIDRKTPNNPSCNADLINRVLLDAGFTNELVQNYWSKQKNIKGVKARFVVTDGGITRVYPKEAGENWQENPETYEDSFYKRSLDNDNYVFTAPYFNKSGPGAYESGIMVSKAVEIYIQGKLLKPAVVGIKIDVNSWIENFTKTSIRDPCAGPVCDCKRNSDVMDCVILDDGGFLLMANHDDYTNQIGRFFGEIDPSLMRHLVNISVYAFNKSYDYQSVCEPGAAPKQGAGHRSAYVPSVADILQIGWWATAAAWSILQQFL
Sequence of N-type calcium channel (α1B (Cav2.2), β3 and α2δ subunits) (P54289 947-1103 partner limits assumed): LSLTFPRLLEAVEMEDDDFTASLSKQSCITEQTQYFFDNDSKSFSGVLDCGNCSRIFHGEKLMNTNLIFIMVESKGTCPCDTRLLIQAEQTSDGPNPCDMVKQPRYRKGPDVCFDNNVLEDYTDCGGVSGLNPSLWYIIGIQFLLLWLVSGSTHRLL
Sequence of N-type calcium channel (Q00975 whole entry): as the sequence (Q00975 whole entry) above
Sequence of N-type calcium channel (P54284 whole entry partner): as the sequence (P54284 whole entry partner) above
Sequence of N-type calcium channel (P54289 25-946 partner limits assumed): as the sequence (P54289 25-946 partner limits assumed) above
Sequence of N-type calcium channel (P54289 947-1103 partner limits assumed): as the sequence (P54289 947-1103 partner limits assumed) above

| Compound | IC50 [1] | inhibition at 0.33 µM ([1]; 0.33 μM) | inhibition at 0.1 µM (N-type calcium channel; [4]) | inhibition at 0.1 µM (N-type calcium channel; [5]) | also measured |
| --- | --- | --- | --- | --- | --- |
| COc1ccccc1-n1nc2c(c1-c1ccc(Cl)cc1)CC(CCNC(C)=O)C2 (stereo not drawn) [Compound 12, N-{2-[3-(4-chlorophenyl)-2-(2-methoxyphenyl)-2,4,5,6-tetrahydrocyclopenta[c]pyrazol-5-yl]ethyl}acetamide] | 70 nM |  |  |  | inhibition at 1 µM (N-type calcium channel; [2]): 26%; inhibition at 1 µM (N-type calcium channel; [3]): 15% |
| COc1ccccc1-n1nc2c(c1-c1ccc(N(C)C)cc1)CC1(C2)OCC(C)(C)CO1 [Compound 93, 4-[2-(2-methoxyphenyl)-5′,5′-dimethyl-2,6-dihydro-4H-spiro[cyclopenta[c]pyrazole-5,2′-[1,3]dioxan]-3-yl]-N,N-dimethylaniline] | 12 nM | 91% | 30% | 12% |  |
| CCOc1ccccc1-n1nc2c(c1-c1ccc(Cl)cc1)C[C@@H](NC(=O)C(F)(F)F)C2 [Compound 45, N-[(5R)-3-(4-chlorophenyl)-2-(2-ethoxyphenyl)-2,4,5,6-tetrahydrocyclopenta[c]pyrazol-5-yl]-2,2,2-trifluoroacetamide] | 4 nM | 94% | 68% | 60% |  |
| O=C1Cc2nn(-c3ccccc3OC(F)(F)F)c(-c3ccc(Cl)cc3)c2C1 [Compound 27, 3-(4-chlorophenyl)-2-[2-(trifluoromethoxy)phenyl]-2,6-dihydrocyclopenta[c]pyrazol-5(4H)-one] | 11 nM |  | -14% | -16% |  |
| COc1ccccc1-n1nc2c(c1-c1ccc(Cl)cc1)CC1(C2)O[C@H]2CCC[C@H]2O1 (stereo partly drawn) [Compound 114, (3aR,6aS)-3′-(4-chlorophenyl)-2′-(2-methoxyphenyl)-2′,4,5,6,6′,6a-hexahydro-3aH,4′H-spiro[cyclopenta[d][1,3]dioxole-2,5′-cyclopenta[c]pyrazole]] | 5 nM | 90% |  |  | QPatch at High Frequency % Inhibition (N-type calcium channel; 0.1 μM, high-frequency stimulation (15th pulse)): 65%; QPatch at Low Frequency % Inhibition (N-type calcium channel; low frequency, 0.1 μM): 44% |
| COc1ccccc1-n1nc2c(c1-c1ccc(Cl)cc1)C[C@H](OC1CCCC1)C2 [Compound 90, (5S)-3-(4-chlorophenyl)-5-(cyclopentyloxy)-2-(2-methoxyphenyl)-2,4,5,6-tetrahydrocyclopenta[c]pyrazole] | 22 nM | 89% | 21% | 10% |  |
| COc1ccccc1-n1nc2c(c1-c1ccc(Cl)cc1)CC(NS(=O)(=O)C(C)C)C2 (stereo not drawn) [Compound 33, N-[3-(4-chlorophenyl)-2-(2-methoxyphenyl)-2,4,5,6-tetrahydrocyclopenta[c]pyrazol-5-yl]propane-2-sulfonamide] | 18 nM |  | 42% | 35% |  |
| COc1ccccc1-n1nc2c(c1-c1ccc(N(C)C)nc1)CC1(C2)OCC(C)(C)CO1 [Compound 97, 5-[2-(2-methoxyphenyl)-5′,5′-dimethyl-2,6-dihydro-4H-spiro[cyclopenta[c]pyrazole-5,2′-[1,3]dioxan]-3-yl]-N,N-dimethylpyridin-2-amine] | 29 nM | 88% | 33% | 27% |  |
| CCOc1ccccc1-n1nc2c(c1-c1ccc(Cl)cc1)CC(NS(=O)(=O)N(C)C)C2 (stereo not drawn) [Compound 47, N′-[3-(4-chlorophenyl)-2-(2-ethoxyphenyl)-2,4,5,6-tetrahydrocyclopenta[c]pyrazol-5-yl]-N,N-dimethylsulfamide] | 4 nM | 92% | 19% | 15% |  |
| COc1ccccc1-n1nc2c(c1-c1ccc(Cl)cc1)CC(CCNS(C)(=O)=O)C2 (stereo not drawn) [Compound 11, N-{2-[3-(4-chlorophenyl)-2-(2-methoxyphenyl)-2,4,5,6-tetrahydrocyclopenta[c]pyrazol-5-yl]ethyl}methanesulfonamide] | 73 nM | 99% |  |  | inhibition at 1 µM (N-type calcium channel; [2]): 28%; inhibition at 1 µM (N-type calcium channel; [3]): 29% |
| CN(C)S(=O)(=O)N(C)[C@@H]1Cc2nn(-c3cccc4c3OCC4)c(-c3ccc(Cl)cc3)c2C1 [Compound 50, N-[(5S)-3-(4-chlorophenyl)-2-(2,3-dihydro-1-benzofuran-7-yl)-2,4,5,6-tetrahydrocyclopenta[c]pyrazol-5-yl]-N,N′,N′-trimethylsulfamide] | 14 nM | 95% | 41% | 33% |  |
| COc1ccccc1-n1nc2c(c1-c1ccc(Cl)cc1)CC(C1CNc3ccccc3C1)C2 (stereo not drawn) [Compound 65, 3-[3-(4-chlorophenyl)-2-(2-methoxyphenyl)-2,4,5,6-tetrahydrocyclopenta[c]pyrazol-5-yl]-1,2,3,4-tetrahydroquinoline] | 280 nM | 59% |  |  |  |
| COc1ccccc1-n1nc2c(c1-c1ccc(Cl)cc1)CC(c1ccc(C3CC3)nc1)C2 (stereo not drawn) [Compound 77, 3-(4-chlorophenyl)-5-(6-cyclopropylpyridin-3-yl)-2-(2-methoxyphenyl)-2,4,5,6-tetrahydrocyclopenta[c]pyrazole] | 62 nM | 81% |  |  |  |
| COc1ccccc1-n1nc2c(c1-c1ccc(Cl)cc1)CC(N1CC(C)OC(C)C1)C2 (stereo not drawn) [Compound 116, 3-(4-chlorophenyl)-5-(2,6-dimethylmorpholin-4-yl)-2-(2-methoxyphenyl)-2,4,5,6-tetrahydrocyclopenta[c]pyrazole] | 48 nM | 77% |  |  |  |
| CCc1nc(C)n([C@@H]2Cc3nn(-c4ccccc4OC)c(-c4ccc(C#N)cc4)c3C2)c1CC [Compound 138, 4-[(5S)-5-(4,5-diethyl-2-methyl-1H-imidazol-1-yl)-2-(2-methoxyphenyl)-2,4,5,6-tetrahydrocyclopenta[c]pyrazol-3-yl]benzonitrile] | 320 nM | 63% |  |  |  |
| COc1ccccc1-n1nc2c(c1-c1ccc(Cl)cc1)C[C@H](OCC1CCC1)C2 [Compound 84, (5S)-3-(4-chlorophenyl)-5-(cyclobutylmethoxy)-2-(2-methoxyphenyl)-2,4,5,6-tetrahydrocyclopenta[c]pyrazole] |  |  |  |  | inhibition at 0.33 µM [1]: 80% |
| COc1ccccc1-n1nc2c(c1-c1ccc(Cl)cc1)CC(C(N)=O)C2 (stereo not drawn) [Compound 6, 3-(4-chlorophenyl)-2-(2-methoxyphenyl)-2,4,5,6-tetrahydrocyclopenta[c]pyrazole-5-carboxamide] | 490 nM | 75% |  |  |  |
| COc1ccccc1-n1nc2c(c1-c1ccc(C#N)cc1)CC(CC1CCCCC1)C2 (stereo not drawn) [Compound 106, 4-[5-(cyclohexylmethyl)-2-(2-methoxyphenyl)-2,4,5,6-tetrahydrocyclopenta[c]pyrazol-3-yl]benzonitrile] | 270 nM | 64% |  |  |  |
| COc1ccccc1-n1nc2c(c1-c1ccc(Cl)cc1)C[C@H](OCC1CCCC1)C2 [Compound 83, (5S)-3-(4-chlorophenyl)-5-(cyclopentylmethoxy)-2-(2-methoxyphenyl)-2,4,5,6-tetrahydrocyclopenta[c]pyrazole] | 49 nM |  |  |  | inhibition at 0.33 µM [1]: 92% |
| O=C(OC1Cc2nn(-c3ccccc3OC(F)(F)F)c(-c3ccc(Cl)cc3)c2C1)N1CCOCC1 (stereo not drawn) [Compound 24, 3-(4-chlorophenyl)-2-[2-(trifluoromethoxy)phenyl]-2,4,5,6-tetrahydrocyclopenta[c]pyrazol-5-ylmorpholine-4-carboxylate] | 150 nM |  |  |  |  |
| CCC1(CC)CCN(C2Cc3nn(-c4ccccc4OC)c(-c4ccc(Cl)cc4)c3C2)C1 (stereo not drawn) [Compound 118, 3-(4-chlorophenyl)-5-(3,3-diethylpyrrolidin-1-yl)-2-(2-methoxyphenyl)-2,4,5,6-tetrahydrocyclopenta[c]pyrazole] | 46 nM | 76% |  |  |  |
| CCc1ccccc1-n1nc2c(c1-c1ccc(Cl)cc1)CC(CNS(C)(=O)=O)C2 (stereo not drawn) [Compound 18, N-{[3-(4-chlorophenyl)-2-(2-ethylphenyl)-2,4,5,6-tetrahydrocyclopenta[c]pyrazol-5-yl]methyl}methanesulfonamide] | 200 nM |  |  |  |  |
